In this assay the target is T1, ULK1 (Homo sapiens, UniProt O75385).
T1 sequence (O75385 1-1050): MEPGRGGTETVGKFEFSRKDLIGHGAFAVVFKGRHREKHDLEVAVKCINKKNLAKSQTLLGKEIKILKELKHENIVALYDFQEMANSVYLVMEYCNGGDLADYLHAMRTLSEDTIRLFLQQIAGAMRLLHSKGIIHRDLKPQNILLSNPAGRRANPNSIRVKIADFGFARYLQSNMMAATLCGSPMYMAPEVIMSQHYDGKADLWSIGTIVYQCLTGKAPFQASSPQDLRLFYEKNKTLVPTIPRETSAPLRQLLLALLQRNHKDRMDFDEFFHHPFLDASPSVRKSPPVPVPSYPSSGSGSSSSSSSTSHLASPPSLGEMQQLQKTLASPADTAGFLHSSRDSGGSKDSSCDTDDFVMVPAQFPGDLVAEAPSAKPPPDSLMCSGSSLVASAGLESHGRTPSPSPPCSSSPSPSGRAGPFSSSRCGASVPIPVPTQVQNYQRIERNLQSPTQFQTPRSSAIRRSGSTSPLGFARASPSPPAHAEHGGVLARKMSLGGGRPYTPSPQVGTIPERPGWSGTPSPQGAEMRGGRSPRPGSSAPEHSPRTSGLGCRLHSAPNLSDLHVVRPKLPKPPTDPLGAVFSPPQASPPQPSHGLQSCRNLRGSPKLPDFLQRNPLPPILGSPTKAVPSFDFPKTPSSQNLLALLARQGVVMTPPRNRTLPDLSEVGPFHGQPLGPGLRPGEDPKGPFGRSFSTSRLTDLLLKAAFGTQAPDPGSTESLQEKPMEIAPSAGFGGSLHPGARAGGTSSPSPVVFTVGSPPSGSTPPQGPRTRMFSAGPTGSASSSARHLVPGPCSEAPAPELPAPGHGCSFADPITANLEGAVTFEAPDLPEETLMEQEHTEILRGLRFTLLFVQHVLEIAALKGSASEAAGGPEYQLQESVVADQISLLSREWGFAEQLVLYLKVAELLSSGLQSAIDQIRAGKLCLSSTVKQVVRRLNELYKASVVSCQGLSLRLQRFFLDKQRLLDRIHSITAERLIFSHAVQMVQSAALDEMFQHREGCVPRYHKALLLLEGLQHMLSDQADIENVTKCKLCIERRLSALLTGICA
The assay is described as follows: ULK1 inhibition assay. Format: biochemical. Particulars: * = tested as a mixture of regioisomers.

IC50 data for 56 compounds are collected here from US20230130766A1 (SALK INSTITUTE FOR BIOLOGICAL STUDIES, priority 2020, published 2023).

Broadly, the IC50 is the point on the concentration scale where inhibition reaches its midpoint.

On to `CNC(=O)c1ccccc1Nc1nc(Nc2ccc3c(c2)CCC(=O)N3)ncc1Br` [Compound 20], for which the half-inhibitory concentration (IC50) is < 200 nM. For `COCC(C)(CN(C)C)Nc1nc(Nc2ccc3c(c2)CCC(=O)N3)ncc1C(F)(F)F` (centres unmarked) [Compound 220c] the value was > 2000 nM; for `COc1cc(N2CCOCC2)ccc1Nc1ncc(Br)c(Nc2ccccc2S(=O)(=O)N(C)C)n1` [Compound 80], < 200 nM; for `CNC(=O)c1ccccc1Oc1nc(Nc2cc(OC)ccc2OC)ncc1C(F)(F)F` [Compound 109a], > 2000 nM. For `CNC(=O)c1ccccc1COc1nc(Nc2cc(OC)c(OC)c(OC)c2)ncc1Br` [Compound 338] the value was > 2000 nM; for `CNC(=O)c1ccccc1Oc1nc(Nc2ccccc2)ncc1Br` [Compound 111], > 2000 nM. For `COc1cccc(Nc2nc(Nc3cc4ccccc4cc3O)ncc2C(F)(F)F)c1` [137*] the value was 200 to 2000 nM. Turning to `CNC(=O)c1cccc(OC)c1Oc1nc(Nc2cc(OC)c(OC)c(OC)c2)ncc1Br` [Compound 252], the half-inhibitory concentration (IC50) was < 200 nM.

`CCN1CCOc2cc(Nc3ncc(C(F)(F)F)c(NC4CC4)n3)cnc21` [Compound 344]: the IC50 was < 200 nM. Take `FC(F)(F)c1cnc(Nc2ccc3ncccc3c2)nc1NC1CC1` [Compound 264]: the IC50 was < 200 nM. For `COc1ccc(OC)c(Nc2ncc(C(F)(F)F)c(O)n2)c1` [Compound 109b] the value was > 2000 nM. For `CNC(=O)c1ccccc1Sc1nc(Nc2cc(OC)ccc2C)ncc1C(F)(F)F` [Compound 117] the value was > 2000 nM; for `FC(F)(F)c1cnc(Nc2ccc3c(c2)OCO3)nc1NC1CC1` [Compound 213], < 200 nM. For `FC(F)(F)c1cnc(Nc2ccc3nc[nH]c3c2)nc1Nc1cc(C2CCC2)[nH]n1` [Compound 297] the value was < 200 nM; for `CC(C)(C)OC(=O)NCCCNc1nc(Nc2ccc3c(c2)CCC(=O)N3)ncc1C(F)(F)F` [Compound 310], < 200 nM; for `Nc1nc(N(C(=O)C2CC2)c2ccc3c(c2)CCC(=O)N3)ncc1C(F)(F)F` [Compound 358], > 2000 nM. As to `O=C1CCc2cc(Nc3ncc(C(F)(F)F)c(Nc4ccccc4CO)n3)ccc2N1` [Compound 347], the IC50 was < 200 nM.

Turning to `O=C1CCc2cc(Nc3ncc(C(F)(F)F)c(Nc4ccccc4OC(F)F)n3)ccc2N1` [Compound 120a], the IC50 was < 200 nM. On to `CS(=O)(=O)c1cccc(CNc2nc(Nc3ccc4[nH]ccc4c3)ncc2Br)c1` [Compound 153], for which the IC50 is > 2000 nM. For `Oc1ccc(CCNc2ncc(C(F)(F)F)c(NC3CC3)n2)cc1` [Compound 246] the value was 200 to 2000 nM; for `O=C1CCc2cc(Nc3nc(NC4CC4)ncc3C(F)(F)F)ccc2N1` [Compound 131b], < 200 nM; for `O=c1[nH]c2ccc(Nc3ncc(Br)c(Nc4ccc5[nH]c(=O)[nH]c5c4)n3)cc2[nH]1` [Compound 233], < 200 nM. For `CN(C)c1nc(Nc2ccc3c(c2)CCC(=O)N3)ncc1C(F)(F)F` [Compound 220b] the value was < 200 nM; for `COc1cccc(Nc2nc(Nc3ccc4c(c3)CCC(=O)N4)ncc2Br)c1` [Compound 142], < 200 nM; for `FC(F)(F)c1cnc(NCC2CC2)nc1Nc1ccc2c(c1)OCO2` [Compound 167a], < 200 nM. `CNC(=O)c1ccccc1Nc1nc(Nc2cc(OC)c(OC)c(OC)c2)ncc1/C=C/c1ccccc1` [Compound 71]: the IC50 is < 200 nM.

With `O=C1CCc2cc(Nc3ncc(C(F)(F)F)c(OC4COC4)n3)ccc2N1` [Compound 231a], the IC50 was < 200 nM. For `Fc1c(Nc2nc(Nc3ccc4c(c3)OCO4)ncc2C(F)(F)F)cccc1C(F)(F)F` [Compound 141b] the value was < 200 nM; for `CNC(=O)c1ccccc1Oc1nc(Nc2cc(OC)ccc2C)ncc1Br` [Compound 170], > 2000 nM.

`COc1cc(Nc2ncc(Br)c(Oc3ccccc3NC(=O)C3CC3)n2)cc(OC)c1OC` [Compound 281]: the IC50 was < 200 nM. For `N#CCc1cccc(Nc2nc(Nc3ccc4c(c3)CCC(=O)N4)ncc2C(F)(F)F)c1` [Compound 61] the value was < 200 nM. For `COCc1ccccc1Oc1nc(Nc2cc(OC)c(OC)c(OC)c2)ncc1Br` [Compound 274] the value was < 200 nM; for `COc1cc(Nc2ncc(Br)c(N(C)C(=O)c3ccccc3O)n2)cc(OC)c1OC` [Compound 171b], < 200 nM; for `CNC(=O)c1c(O)cccc1Oc1nc(Nc2cc(OC)c(OC)c(OC)c2)ncc1Br` [Compound 257], < 200 nM. For `FC1(F)Oc2ccc(Nc3ncc(C(F)(F)F)c(NC4CC4)n3)cc2O1` [Compound 258] the value was > 2000 nM; for `O=C1CCc2cc(Nc3ncc(C(F)(F)F)c(Oc4ccccc4)n3)ccc2N1` [Compound 300a], > 2000 nM. Take `O=C1CCc2cc(Nc3ncc(C(F)(F)F)c(N(CCO)CCO)n3)ccc2N1` [Compound 212a]: the IC50 was > 2000 nM.

Consider `FC(F)(F)c1cnc(Nc2ccc3c(c2)CCNC3)nc1NC1CC1` [Compound 309], for which the IC50 was < 200 nM. For `FC(F)(F)c1cnc(N2CCCC2c2cccnc2)nc1NC1CC1` (centres unmarked) [Compound 228] the value was > 2000 nM; for `NC(=O)c1cccc(Nc2ncc(C(F)(F)F)c(Nc3ccc4c(c3)OCO4)n2)c1` [138*], < 200 nM. For `FC(F)(F)c1cnc(Nc2ccon2)nc1NC1CC1` [Compound 214a] the value was 200 to 2000 nM; for `CNC(=O)c1ccccc1Nc1nc(Nc2ccc3c(c2)CCC(=O)N3)ncc1-c1ccccc1` [Compound 89], < 200 nM. For `COc1cc(Nc2ncc(Br)c(NC3CC3)n2)cc(OC)c1OC` [Compound 186], the IC50 is < 200 nM. As to `O=C(Nc1ccc(Nc2ncc(C(F)(F)F)c(NC3CC3)n2)cc1)C1CC1` [Compound 312], the IC50 was < 200 nM. For `CCCCOc1nc(Nc2cc(OC)c(OC)c(OC)c2)ncc1Br` [Compound 173] the value was < 200 nM. For `CNC(=O)c1ccccc1Oc1nc(Nc2ccc(C)c(Br)c2)ncc1C(F)(F)F` [Compound 102] the value was > 2000 nM; for `O=C1CCc2cc(Nc3ncc(C(F)(F)F)c(NC4Cc5ccccc5C4)n3)ccc2N1` [Compound 130a], < 200 nM.

For `FC(F)(F)c1cnc(Nc2cccc(Cl)c2Cl)nc1Nc1ccc2c(c1)OCO2` [147*], the IC50 was > 2000 nM. For `O=C1CCc2cc(Nc3ncnc(NC4CC4)n3)ccc2N1` [Compound 225] the value was > 2000 nM. For `O=C1CCc2cc(Nc3ncc(C(=O)O)c(NC4CC4)n3)ccc2N1` [Compound 286] the value was > 2000 nM. For `Nc1ccc(Nc2ncc(C(F)(F)F)c(NC3CC3)n2)cc1` [Compound 304a] the value was < 200 nM. For `COc1cc(Nc2ncc(Br)c(Oc3cccc4c3N(C(C)=O)CCC4)n2)cc(OC)c1OC` [Compound 335a], the IC50 was > 2000 nM.

On to `COc1cc(Nc2ncc(Br)c(Oc3ccccc3C(=O)N(C)C)n2)cc(OC)c1OC` [Compound 245], for which the IC50 was < 200 nM.

Take `O=C1CCc2cc(Nc3ncc(C(F)(F)F)c(C#Cc4ccccc4)n3)ccc2N1` [Compound 64]: the 50% inhibitory concentration (IC50) is > 2000 nM.

`FC(F)(F)c1cnc(NC2CCC2)nc1Nc1ccc2c(c1)OCO2` [Compound 168a]: the 50% inhibitory concentration (IC50) was < 200 nM.

With `CN(c1ccccc1)c1ncc(C(F)(F)F)c(Nc2ccc3c(c2)CCC(=O)N3)n1` [Compound 184b], the half-inhibitory concentration (IC50) was < 200 nM.
